Experiment [1] concerns the target T1, nitrile hydratase (Pseudomonas chlororaphis, UniProt P27763+P27764).
T1 sequence (P27764 1-200): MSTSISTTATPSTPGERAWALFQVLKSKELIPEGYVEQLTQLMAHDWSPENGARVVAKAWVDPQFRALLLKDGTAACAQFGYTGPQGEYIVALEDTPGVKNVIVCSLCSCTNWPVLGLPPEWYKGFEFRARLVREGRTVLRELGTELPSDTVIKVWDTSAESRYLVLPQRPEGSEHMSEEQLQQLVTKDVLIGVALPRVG
T1 sequence (P27763 1-220): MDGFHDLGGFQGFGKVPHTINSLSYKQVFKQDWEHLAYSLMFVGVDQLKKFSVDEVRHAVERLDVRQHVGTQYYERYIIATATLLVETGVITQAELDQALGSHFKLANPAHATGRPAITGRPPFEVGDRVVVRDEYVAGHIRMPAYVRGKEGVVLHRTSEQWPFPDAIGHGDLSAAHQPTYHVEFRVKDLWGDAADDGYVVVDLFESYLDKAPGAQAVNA
Briefly: Preservation of nitrile hydration activity of cell extract (crude enzyme solution) left standing. In kind it is biochemical, Pseudomonas chlororaphis B23 (FERM BP-187). Particulars: Table 6. The method, then:
The resultant cell suspension was pressed in a French press (fabricated by Ohtake Seisakusho, Japan) to crush cells under a pressure of 1,000 to 1,500 kg G and then subjected to centrifugation (12,000 rpm, 30 minutes) to remove uncrushed cells and insolubles such as cell walls, whereby a cell extract, i.e. a crude enzyme solution, was obtained.
For comparison purposes, a similar cell suspension (3.2×10^3 U/ml) which contained no ammonium isobutyrate was prepared and subjected to a French press treatment and centrifugation under similar conditions, whereby a control cell extract was obtained.

The target of experiment [2] is T1, nitrile hydratase. The experiment is described as follows: Preservation of nitrile hydration activity of polyacrylamide gel-immobilized cells left standing. It counts as cell-based, Pseudomonas chlororaphis B23 (FERM BP-187). Particulars: Table 7. The method, then:
40 ml of washed cells (water content 75%) prepared as in Example 1, 4.5 g of acrylamide, 0.5 g of N,N'-methylenebisacrylamide, and 40 ml of M/20 phosphate buffer (containing 10 g/l of ammonium isobutyrate, pH 6.0) were mixed to form a homogeneous suspension. To this suspension were added 5 ml of a 5% aqueous solution of dimethylaminopropionitrile and 10 ml of a 1% aqueous solution of potassium persulfate, and the mixture was maintained at 10° C. for 30 minutes to cause polymerization. A mass of cell-containing gel obtained was crushed into small particles, which were thoroughly washed with M/20 phosphate buffer containing 5 g/l of ammonium isobutyrate, pH 7.0, whereby approximately 90 g of immobilized cells were obtained.
The washed, immobilized cells thus obtained were placed in the same buffer containing 5 g/l of isobutyric acid and left standing at 0° C. for 5 days. […]
The nitrile hydration activity levels of the gel samples were measured as follows before and after the respective immobilized cells were left standing.
1 g of immobilized gel was mixed with 5 g of acrylonitrile and 97 ml of M/20 phosphate buffer (pH 7.7), and the mixture was subjected to reaction at 0° C. for 20 minutes with stirring. The quantities of acrylamide in the respective reaction solutions were determined by gas chromatography.

The target in experiment [3] is T1, nitrile hydratase. The experiment is described as follows: Preservation of nitrile hydration activity of enzyme immobilized on DEAE-Cellulofine AM left standing. In kind it is biochemical, Pseudomonas chlororaphis B23 (FERM BP-187). Particulars: Table 8. The method, then:
25 ml each of a cell extract containing ammonium isobutyrate and a control cell extract containing no ammonium isobutyrate prepared as in Example 95 and comparison Example 11 were mixed with 15 g each of DEAE-Cellulofine AM (supplied by Seikagaku Kogyo Co., Ltd., Japan) equilibrated with M/20 phosphate buffer (pH 7.7). The mixture was stirred at 0° C. for 90 minutes to immobilize the enzymes.
The results are presented in Table 8 in which the protein levels in the immobilized enzymes were determined in accordance with the procedure of Lowry et al.

The values below come from patent US4900672A, “Method for preservation of nitrile hydration activity” (Nitto Kagaku Kogyo Kabushiki Kaisha, priority 1986, dated 1990).

As for `CC(C)C(=O)O.N` [Ammonium Isobutyrate, ammonium isobutyrate], the “Activity Before Being Left Standing” value in experiment [1] (cell extract from suspension mixed 1:1 with buffer (pH 6.5) containing 10 g/l ammonium isobutyrate, control without: 2.7 × 10^3) is listed as 2.9 × 10^3 U/ml; in experiment [3] (enzyme immobilized on DEAE-Cellulofine AM, control without: 4.6), 19.4. Further, the “Activity After Being Left Standing” value in experiment [1] (cell extract, 3 days ice-cooled, control without: 1.0 × 10^3) is 2.8 × 10^3 U/ml; in experiment [3] (immobilized enzyme, 3 days ice-cooled, control without: 1.7), 18.4. Besides, the “% Residual Activity” value in experiment [1] (cell extract, 3 days ice-cooled, control without: 38) stood at 94%; in experiment [3] (immobilized enzyme, 3 days ice-cooled, control without: 37) it was 95%. The “Quant. of AA produced (%) after cells were left standing” value in experiment [2] (immobilized cells left standing at 0° C. for 5 days in buffer with 5 g/l stabilizer, control without: 0.52) was 0.93%. Moreover, in experiment [2] (immobilized cells, 1 g gel + 5 g acrylonitrile, 0° C., 20 minutes, control without: 0.88), the “Quant. of AA produced (%) before cells were left standing” value worked out at 1.02%.
